From US9624208B2, “Benzoxazolinone compounds with selective activity in voltage-gated sodium channels” (Merck Sharp & Dohme Corp., priority 2012, dated 2017)
Read-outs that look alike come from different tables or passages of the source.

Key:
human Nav1.7 = biological target: T1, human Nav1.7 (Homo sapiens, UniProt Q15858); assay: PatchXpress sodium current measurement, inactivated state block, Nav1.7; assay type: cell-based; conditions: channels stably expressed in HEK 293 cells, double-pulse protocol, 22° C.
T1 construct: expressed in transfected cells
T1 sequence (Q15858 whole entry): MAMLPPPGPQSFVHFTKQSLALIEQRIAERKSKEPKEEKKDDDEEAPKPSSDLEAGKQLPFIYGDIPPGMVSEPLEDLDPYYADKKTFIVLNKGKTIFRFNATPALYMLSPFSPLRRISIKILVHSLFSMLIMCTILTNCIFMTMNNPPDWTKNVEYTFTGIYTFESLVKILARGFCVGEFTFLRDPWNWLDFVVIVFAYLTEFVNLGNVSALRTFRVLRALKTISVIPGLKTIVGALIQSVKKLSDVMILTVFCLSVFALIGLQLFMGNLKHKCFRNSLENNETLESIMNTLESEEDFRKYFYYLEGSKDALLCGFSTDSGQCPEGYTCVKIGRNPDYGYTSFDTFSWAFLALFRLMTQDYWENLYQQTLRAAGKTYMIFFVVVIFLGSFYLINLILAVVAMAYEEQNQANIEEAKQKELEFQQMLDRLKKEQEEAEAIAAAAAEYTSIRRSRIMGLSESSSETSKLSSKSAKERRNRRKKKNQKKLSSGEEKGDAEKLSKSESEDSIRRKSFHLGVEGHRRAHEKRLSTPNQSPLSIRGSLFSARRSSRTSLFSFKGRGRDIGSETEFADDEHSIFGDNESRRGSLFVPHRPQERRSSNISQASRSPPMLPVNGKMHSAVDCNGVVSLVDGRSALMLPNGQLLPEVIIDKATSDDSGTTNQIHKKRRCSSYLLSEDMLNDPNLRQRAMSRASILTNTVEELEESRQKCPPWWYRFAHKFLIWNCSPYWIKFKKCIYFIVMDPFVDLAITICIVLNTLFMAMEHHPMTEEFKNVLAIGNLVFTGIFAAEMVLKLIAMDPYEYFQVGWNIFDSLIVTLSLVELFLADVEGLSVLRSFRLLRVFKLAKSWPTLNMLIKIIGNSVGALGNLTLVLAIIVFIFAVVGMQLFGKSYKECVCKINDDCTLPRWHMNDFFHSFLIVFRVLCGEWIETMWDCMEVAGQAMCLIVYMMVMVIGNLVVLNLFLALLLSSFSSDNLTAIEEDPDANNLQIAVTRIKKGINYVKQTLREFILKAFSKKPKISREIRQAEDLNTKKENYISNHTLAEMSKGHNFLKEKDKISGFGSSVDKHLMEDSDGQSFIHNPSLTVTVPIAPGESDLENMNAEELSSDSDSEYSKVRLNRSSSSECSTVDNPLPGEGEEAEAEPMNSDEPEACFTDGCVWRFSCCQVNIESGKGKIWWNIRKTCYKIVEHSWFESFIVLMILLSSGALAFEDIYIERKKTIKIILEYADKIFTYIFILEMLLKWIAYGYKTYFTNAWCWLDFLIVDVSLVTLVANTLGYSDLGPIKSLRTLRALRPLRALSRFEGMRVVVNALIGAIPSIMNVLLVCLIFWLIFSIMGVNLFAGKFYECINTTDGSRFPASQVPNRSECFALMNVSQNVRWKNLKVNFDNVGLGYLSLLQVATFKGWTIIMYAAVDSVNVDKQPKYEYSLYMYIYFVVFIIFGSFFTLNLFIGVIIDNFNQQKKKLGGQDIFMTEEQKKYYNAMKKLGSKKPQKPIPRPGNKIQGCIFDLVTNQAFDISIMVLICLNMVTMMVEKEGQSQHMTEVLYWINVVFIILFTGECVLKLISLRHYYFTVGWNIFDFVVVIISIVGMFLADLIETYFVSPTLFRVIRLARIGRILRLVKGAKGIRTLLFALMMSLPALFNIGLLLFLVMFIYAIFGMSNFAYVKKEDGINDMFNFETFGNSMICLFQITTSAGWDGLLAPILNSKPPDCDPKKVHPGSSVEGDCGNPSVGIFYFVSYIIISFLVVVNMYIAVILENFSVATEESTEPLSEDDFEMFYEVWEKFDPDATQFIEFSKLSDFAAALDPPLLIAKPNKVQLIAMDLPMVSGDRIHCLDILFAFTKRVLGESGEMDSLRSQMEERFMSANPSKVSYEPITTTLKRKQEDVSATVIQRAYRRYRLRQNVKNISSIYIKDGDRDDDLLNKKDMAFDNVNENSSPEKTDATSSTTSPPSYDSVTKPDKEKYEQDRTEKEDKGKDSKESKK
Method: (§1) Cell Based Assays for Nav 1.7 and Nav 1.5 Activity
(§2) Compounds were tested on human Nav1.7 and Nav1.5 channels stably expressed in HEK 293 cells.
(§3) Sodium Current Measurements on the PatchXpress 7000:
(§4) To measure inactivated state block of sodium channels, test compounds were characterized in an automated PatchXpress® assay (Molecular Devices) using a double-pulse protocol on human Nav1.7 and Nav1.5 channels stably expressed in HEK 293 cells. Cells were held at a potential 20 mV negative to the potential at which ˜50% of the channels are inactivated. A 8000 ms pre-pulse 7 mV positive to the potential at which ˜50% of the channels are inactivated was given followed by a hyperpolarizing 2 ms pulse to −120 mV and a 20 ms test pulse to −20 mV. The protocol was applied to cells in the absence, presence of compound and after washout. The temperature of PatchXpress® instruments was maintained at 22° C. The following recording solutions were used. Internal solution (mM): 30 CsCl, 5 HEPES, 10 EGTA, 120 CsF, 5 NaF, 2 MgCl2, pH 7.3 with CsOH. External solution (mM): 120 NMDG, 40 NaCl, 1 KCl, 0.5 MgCl2, 5 HEPES, 2.7 CaCl2, pH 7.5 with NMDG-OH. Estimated IC50 values were calculated based on at least two compound concentrations tested. For all electrophysiology experiments, offline analysis was used to correct for current rundown and to determine percent inhibition as a function of drug concentration. IC50 values were determined by fitting to the Hill equation.

human Nav1.5 = biological target: T2, human Nav1.5 (Homo sapiens, UniProt Q14524); assay: PatchXpress sodium current measurement, inactivated state block, Nav1.5; assay type: cell-based; conditions: determined by PatchXpress measurement, HEK 293 cells
T2 construct: expressed in transfected cells
T2 sequence (Q14524 whole entry): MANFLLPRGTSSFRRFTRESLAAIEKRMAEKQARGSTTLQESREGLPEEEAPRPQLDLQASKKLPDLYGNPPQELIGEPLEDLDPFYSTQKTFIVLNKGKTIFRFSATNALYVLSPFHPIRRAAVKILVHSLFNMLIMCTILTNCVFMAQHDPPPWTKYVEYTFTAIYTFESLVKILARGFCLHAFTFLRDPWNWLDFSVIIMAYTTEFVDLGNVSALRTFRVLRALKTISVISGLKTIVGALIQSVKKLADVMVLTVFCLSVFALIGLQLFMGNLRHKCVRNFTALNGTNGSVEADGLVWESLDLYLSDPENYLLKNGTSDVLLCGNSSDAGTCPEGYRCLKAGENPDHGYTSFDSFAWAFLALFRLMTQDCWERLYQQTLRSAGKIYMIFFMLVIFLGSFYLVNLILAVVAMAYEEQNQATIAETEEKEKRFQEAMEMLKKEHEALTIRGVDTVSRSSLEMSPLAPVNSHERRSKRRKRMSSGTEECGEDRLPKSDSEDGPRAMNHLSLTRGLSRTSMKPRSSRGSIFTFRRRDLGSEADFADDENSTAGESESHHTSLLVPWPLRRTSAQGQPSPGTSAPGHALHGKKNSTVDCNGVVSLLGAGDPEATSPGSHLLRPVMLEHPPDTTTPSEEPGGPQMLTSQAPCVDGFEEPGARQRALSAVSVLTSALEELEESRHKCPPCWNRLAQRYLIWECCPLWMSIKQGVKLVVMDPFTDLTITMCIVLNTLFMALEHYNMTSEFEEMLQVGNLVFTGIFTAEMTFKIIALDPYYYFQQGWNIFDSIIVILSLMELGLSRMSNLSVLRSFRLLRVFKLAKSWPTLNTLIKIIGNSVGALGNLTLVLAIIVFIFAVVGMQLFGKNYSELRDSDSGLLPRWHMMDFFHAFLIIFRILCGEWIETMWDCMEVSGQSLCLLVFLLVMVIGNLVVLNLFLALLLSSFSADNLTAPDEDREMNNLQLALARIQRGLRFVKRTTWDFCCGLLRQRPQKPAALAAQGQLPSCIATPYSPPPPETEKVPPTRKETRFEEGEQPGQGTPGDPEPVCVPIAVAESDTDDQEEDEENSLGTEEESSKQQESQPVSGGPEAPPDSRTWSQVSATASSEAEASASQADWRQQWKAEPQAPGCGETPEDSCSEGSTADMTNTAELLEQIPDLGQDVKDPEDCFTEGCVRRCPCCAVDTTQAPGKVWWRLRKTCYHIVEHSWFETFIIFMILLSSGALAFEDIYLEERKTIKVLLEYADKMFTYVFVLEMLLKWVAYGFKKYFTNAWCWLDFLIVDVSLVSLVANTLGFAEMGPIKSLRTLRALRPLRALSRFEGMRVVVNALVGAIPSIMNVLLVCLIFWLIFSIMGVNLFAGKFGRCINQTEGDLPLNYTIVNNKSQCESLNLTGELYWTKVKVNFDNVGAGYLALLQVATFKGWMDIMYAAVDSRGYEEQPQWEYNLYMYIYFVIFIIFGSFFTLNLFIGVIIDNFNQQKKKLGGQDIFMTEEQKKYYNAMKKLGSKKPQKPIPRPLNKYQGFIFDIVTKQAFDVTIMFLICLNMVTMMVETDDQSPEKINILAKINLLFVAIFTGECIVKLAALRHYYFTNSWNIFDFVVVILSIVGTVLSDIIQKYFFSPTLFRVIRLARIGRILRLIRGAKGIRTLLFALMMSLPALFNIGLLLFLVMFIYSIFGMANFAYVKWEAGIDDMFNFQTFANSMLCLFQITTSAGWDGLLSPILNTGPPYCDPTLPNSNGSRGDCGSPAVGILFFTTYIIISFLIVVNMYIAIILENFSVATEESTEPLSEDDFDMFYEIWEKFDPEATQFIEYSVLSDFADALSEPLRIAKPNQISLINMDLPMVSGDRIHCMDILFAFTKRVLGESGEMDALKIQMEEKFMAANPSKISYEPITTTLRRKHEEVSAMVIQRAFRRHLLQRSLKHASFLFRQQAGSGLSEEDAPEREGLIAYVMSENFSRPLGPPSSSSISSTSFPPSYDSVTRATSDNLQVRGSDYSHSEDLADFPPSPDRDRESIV
Method: as §1, §2, §3, §4

[1] = read-out: potency for the Nav 1.7 sodium ion channel (1.7=)

Structure (SMILES)	IC50 (human Nav1.7; [1])	ratio of Nav 1.5:Nav 1.7 potency (human Nav1.5)	IC50 (human Nav1.7; potency for the Nav 1.7 sodium ion channel (1.7=))
C[C@H](c1ccccc1C1CNC1)n1c(=O)oc2cc(S(=O)(=O)Nc3cccc(F)n3)c(F)cc21 [Ex10-3, (R)-3-(1-(2-(Azetidin-3-yl)phenyl)ethyl)-5-fluoro-N-(6-fluoropyridin-2-yl)-2-oxo-2,3-dihydrobenzo[d]oxazole-6-sulfonamide]	39 nM	1306	
C[C@H](c1ccccc1C1=CCC(N)CC1)n1c(=O)oc2cc(S(=O)(=O)Nc3cccc(F)n3)c(F)cc21 (stereo partly drawn) [Ex7-6, 3-{(1R)-1-[2-(4-aminocyclohex-1-en-1-yl)phenyl]ethyl}-5-fluoro-N-(6-fluoropyridin-2-yl)-2-oxo-2,3-dihydro-1,3-benzoxazole-6-sulfonamide]	460 nM	123	
C[C@H](c1cccc(C#CCN2CCNCC2)c1)n1c(=O)oc2cc(S(=O)(=O)Nc3cccc(F)n3)c(F)cc21 [Ex21-11, 5-fluoro-N-(6-fluoropyridin-2-yl)-2-oxo-3-[(1R)-1-{3-[3-(piperazin-1-yl)prop-1-yn-1-yl]phenyl}ethyl]-2,3-dihydro-1,3-benzoxazole-6-sulfonamide]	189 nM	137	
Cc1cc2c(cc1S(=O)(=O)Nc1cccc(F)n1)oc(=O)n2[C@H](C)c1cccc(C#CCN)c1C [Ex21-24, 3-{(1R)-1-[3-(3-aminoprop-1-yn-1-yl)-2-methylphenyl]ethyl}-N-(6-fluoropyridin-2-yl)-5-methyl-2-oxo-2,3-dihydro-1,3-benzoxazole-6-sulfonamide]	102 nM	240	
C[C@H](c1ccccc1C#CCN1CCC(O)C1)n1c(=O)oc2cc(S(=O)(=O)Nc3cccc(F)n3)c(F)cc21 (stereo partly drawn) [Ex8-8, 5-fluoro-N-(6-fluoropyridin-2-yl)-3-[(1R)-1-{2-[3-(3-hydroxypyrrolidin-1-yl)prop-1-yn-1-yl]phenyl}ethyl]-2-oxo-2,3-dihydro-1,3-benzoxazole-6-sulfonamide]	299 nM	75	
Cc1cccc([C@@H](C)n2c(=O)oc3cc(S(=O)(=O)Nc4cccc(F)n4)c(F)cc32)c1C1CCCN1 (stereo partly drawn) [Ex20-2, 5-fluoro-N-(6-fluoropyridin-2-yl)-3-{(1R)-1-[3-methyl-2-(pyrrolidin-2-yl)phenyl]ethyl}-2-oxo-2,3-dihydro-1,3-benzoxazole-6-sulfonamide]	35 nM	272	
Cc1cc2c(cc1S(=O)(=O)Nc1cccc(F)n1)oc(=O)n2[C@H](C)c1cccc(CCCN)c1 [Ex22-2, 3-{(1R)-1-[3-(3-amino-propyl)phenyl]ethyl}-N-(6-fluoropyridin-2-yl)-5-methyl-2-oxo-2,3-dihydro-1,3-benzoxazole-6-sulfonamide]	70 nM	305	
C[C@H](c1cccc(C2CCCN2)c1)n1c(=O)oc2cc(S(=O)(=O)Nc3cccc(F)n3)c(F)cc21 (stereo partly drawn) [Ex20-3, 5-fluoro-N-(6-fluoropyridin-2-yl)-2-oxo-3-{(1R)-1-[3-(pyrrolidin-2-yl)phenyl]ethyl}-2,3-dihydro-1,3-benzoxazole-6-sulfonamide]	243 nM	218	
C[C@H](c1cccc2c1CNCC2)n1c(=O)oc2cc(S(=O)(=O)Nc3cc(Cl)ccn3)c(F)cc21 [Ex16-8, N-(4-Chloropyridin-2-yl)-5-fluoro-2-oxo-3-[(1R)-1-(1,2,3,4-tetrahydroisoquinolin-8-yl)ethyl]-2,3-dihydro-1,3-benzoxazole-6-sulfonamide]	134 nM	88	
CCN(CC)CC#Cc1cccc([C@@H](C)n2c(=O)oc3cc(S(=O)(=O)Nc4cccc(F)n4)c(F)cc32)c1 [Ex21-15, 3-[(1R)-1-{3-[3-(diethylamino)prop-1-yn-1-yl]phenyl}ethyl]-5-fluoro-N-(6-fluoropyridin-2-yl)-2-oxo-2,3-dihydro-1,3-benzoxazole-6-sulfonamide]	516 nM	58	
C[C@H](c1ccccc1C1=C[C@@H]2CC[C@H](C1)N2)n1c(=O)oc2cc(S(=O)(=O)Nc3cccc(F)n3)c(F)cc21 [Ex7-8, 3-[(1R)-1-{2-[(1S,5R)-8-azabicyclo[3.2.1]oct-2-en-3-yl]phenyl}ethyl]-5-fluoro-N-(6-fluoropyridin-2-yl)-2-oxo-2,3-dihydro-1,3-benzoxazole-6-sulfonamide]		681	81 nM
Cc1cc2c(cc1S(=O)(=O)Nc1cccc(F)n1)oc(=O)n2[C@H](C)c1ccccc1N1CCNCC1 [Ex23-2, N-(6-fluoropyridin-2-yl)-5-methyl-2-oxo-3-{(1R)-1-[2-(piperazin-1-yl)phenyl]ethyl}-2,3-dihydro-1,3-benzoxazole-6-sulfonamide]	74 nM	405	
C[C@H](c1cccc2c1CNCC2)n1c(=O)oc2cc(S(=O)(=O)Nc3ccc(F)cn3)c(F)cc21.Cl [Ex15-5, (R)-5-Fluoro-N-(5-fluoropyridin-2-yl)-2-oxo-3-(1-(1,2,3,4-tetrahydroisoquinolin-8-yl)ethyl)-2,3-dihydrobenzo[d]oxazole-6-sulfonamide hydrochloride]	535 nM	108	
Cc1cc2c(cc1S(=O)(=O)Nc1cccc(F)n1)oc(=O)n2[C@H](C)c1cccc(C#CCN2CCC2)c1 [Ex21-20, 3-[(1R)-1-{3-[3-(azetidin-1-yl)prop-1-yn-l-yl]phenyl}ethyl]-N-(6-fluoropyridin-2-yl)-5-methyl-2-oxo-2,3-dihydro-1,3-benzoxazole-6-sulfonamide]	200 nM	30	

Further compounds by falling IC50 (human Nav1.7; [1]), results first:

IC50 (human Nav1.7; [1])	Structure (SMILES)	ratio of Nav 1.5:Nav 1.7 potency (human Nav1.5)	IC50 (human Nav1.7; potency for the Nav 1.7 sodium ion channel (1.7=))
482 nM	Nc1ccc2c(c1)C(n1c(=O)oc3cc(S(=O)(=O)Nc4cccc(F)n4)c(F)cc31)CCC2 (centres unmarked) [Ex4-4, 3-(7-Amino-1,2,3,4-tetrahydronaphthalen-1-yl)-5-fluoro-N-(6-fluoropyridin-2-yl)-2-oxo-2,3-dihydro-1,3-benzoxazole-6-sulfonamide]	166	
382 nM	C[C@H](c1cccc(C#CCNC2CCCCC2)c1)n1c(=O)oc2cc(S(=O)(=O)Nc3cccc(F)n3)c(F)cc21 [Ex21-6, 3-[(1R)-1-{3-[3-(cyclohexylamino)prop-1-yn-1-yl]phenyl}ethyl]-5-fluoro-N-(6-fluoropyridin-2-yl)-2-oxo-2,3-dihydro-1,3-benzoxazole-6-sulfonamide]	27	
229 nM	C[C@H](c1cccc(C#CC(C)(C)N)c1)n1c(=O)oc2cc(S(=O)(=O)Nc3cccc(F)n3)c(F)cc21 [Ex21-1, 3-{(1R)-1-[3-(3-amino-3-methylbut-1-yn-1-yl)phenyl]ethyl}-5-fluoro-N-(6-fluoropyridin-2-yl)-2-oxo-2,3-dihydro-1,3-benzoxazole-6-sulfonamide]	151	
124 nM	C[C@H](c1ccccc1CN(C)C)n1c(=O)oc2cc(S(=O)(=O)Nc3cccc(F)n3)c(F)cc21 [Ex9-2, 3-[(1R)-1-{2-[(dimethylamino)methyl]phenyl}ethyl]-5-fluoro-N-(6-fluoropyridin-2-yl)-2-oxo-2,3-dihydro-1,3-benzoxazole-6-sulfonamide]	84	
118 nM	C[C@H](c1cccc(C#CC2CCCC2N)c1)n1c(=O)oc2cc(S(=O)(=O)Nc3cccc(F)n3)c(F)cc21 (stereo partly drawn) [Ex21-18, 3-[(1R)-1-{3-[(2-aminocyclopentyl)ethynyl]phenyl}ethyl]-5-fluoro-N-(6-fluoropyridin-2-yl)-2-oxo-2,3-dihydro-1,3-benzoxazole-6-sulfonamide]	64	
41 nM	C[C@H](c1ccccc1C1=CCNCCC1)n1c(=O)oc2cc(S(=O)(=O)Nc3cccc(F)n3)c(F)cc21 [Ex7-7, 5-fluoro-N-(6-fluoropyridin-2-yl)-2-oxo-3-{(1R)-1-[2-(2,5,6,7-tetrahydro-1H-azepin-4-yl)phenyl]ethyl}-2,3-dihydro-1,3-benzoxazole-6-sulfonamide]	239	
9 nM	Cc1cccc([C@@H](C)n2c(=O)oc3cc(S(=O)(=O)Nc4cccc(F)n4)c(F)cc32)c1CN [Ex19-1, 3-{(1R)-1-[2-(aminomethyl)-3-methylphenyl]ethyl}-5-fluoro-N-(6-fluoropyridin-2-yl)-2-oxo-2,3-dihydro-1,3-benzoxazole-6-sulfonamide]	603	
6 nM	Cc1cc2c(cc1S(=O)(=O)Nc1cccc(F)n1)oc(=O)n2[C@H](C)c1ccccc1C1=CCNCC1 [Ex17-8, N-(6-fluoropyridin-2-yl)-5-methyl-2-oxo-3-{(1R)-1-[2-(1,2,3,6-tetrahydropyridin-4-yl)phenyl]ethyl}-2,3-dihydro-1,3-benzoxazole-6-sulfonamide]	1452	
